Among the data in PubChem BioAssay (NCI) are GI50 and TGI values, retold here.

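Where inhibition never reached the appropriate level, the endpoint shown equals the highest concentration tested. Otherwise, values were interpolated linearly from a five-concentration, 48-hour dose response in 96-well plates. GI50 = concentration required for 50% inhibition of growth. At the TGI there is no net growth.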

Test in all cases: NCI tumour cell line growth inhibition, 48 h
Assay [1] concerns COLO 205 colon.
For assay [2], the system named is OVCAR-8 ovarian.
Assay [3] relates to NCI-H226 lung.
Assay [4] deals with OVCAR-5 ovarian.
For assay [5], the system named is M14 melanoma.
Assay [6] relates to SN12C renal.
In assay [7] the test system is SF-539 CNS.
Assay [8] has as its system UO-31 renal.
Assay [9] deals with T-47D breast.
Assay [10] has as its system HL-60(TB) leukemia.

Take `COC(=O)Nc1nc2ccc(C(=O)c3cccc(I)c3)cc2[nH]1`: the GI50 in assay [1] is 0.0472 µM; in assay [2] it was 0.132 µM; in assay [3] it was 0.259 µM; in assay [4], 0.173 µM; in assay [5], 0.072 µM; in [6], 0.125 µM. The GI50 was 0.0589 µM in assay [7], 0.316 µM in [8], 16.5 µM in [9] and 0.0315 µM in assay [10]. Besides, the TGI in assay [1] was 4.55 µM; in assay [2], 30.4 µM; in [3], 25.4 µM; in [4], 17 µM; in [5], 20.7 µM; in [6], more than 33.3 µM. In addition, the TGI in assay [7] is 0.384 µM; in assay [8], 17.2 µM; in assay [9], more than 100 µM; in assay [10], 0.163 µM.
As to `C[C@@H]1CC[C@@H]2[C@@H]1[C@H](OC(=O)/C=C/C1CCCCC1)[C@]1(C3CCCCC3)C[C@@H](OC(=O)CO)[C@@]2(C)O1`, the GI50 in assay [1] is 15.4 µM; in assay [2], 10.7 µM; in [3], 14.3 µM; in assay [4], 15.8 µM; in assay [5], 14.8 µM; in [6], 0.0321 µM. Besides, the figures for the GI50 in assay [7], in assay [9] and in assay [10] were 14.3 µM, 11.1 µM and 16.3 µM, respectively. In addition, the TGI in assay [1] was found to be 30 µM; in assay [2] it was 24.1 µM; in assay [3] it was 28 µM; in assay [4], 29.9 µM; in [5], 31.6 µM; in assay [6] it was 15.1 µM. In addition, the TGI was 27.9 µM in assay [7], 24.1 µM in assay [9] and 35.3 µM in [10].
Consider `Clc1ccc2c(NC3CCC(N4CCCCC4)CC3)ccnc2c1` (stereo not given), for which the TGI in assay [1] is 27.2 µM; in assay [2], more than 100 µM; in assay [3], 48.1 µM; in assay [4] it was more than 100 µM; in [5], 18.1 µM; in assay [6], more than 100 µM. Besides, the TGI in assay [7] is 36.2 µM; in assay [8], 28 µM; in assay [9] it was more than 100 µM; in [10], 43.5 µM.
Take `c1ccc2c(N=NSc3ncnc4nc[nH]c34)c3ccccc3nc2c1`: the GI50 in assay [1] is 0.428 µM; in assay [2] it was 1.5 µM; in assay [3], 0.641 µM; in assay [4], 1.89 µM; in assay [5] it was 1.7 µM; in [6], 0.811 µM. Besides, the GI50 was 1.1 µM in [7], 1.09 µM in [8], 1.44 µM in assay [9] and 3.12 µM in assay [10]. Besides, the TGI in assay [1] was 1.76 µM; in assay [2], 2.96 µM; in assay [3], 2.31 µM; in [4] it was 6.3 µM; in [5], 4.12 µM; in [6], 12.8 µM. Moreover, the TGI in assay [7] was determined as 3.55 µM; in [8] it was 3.99 µM; in assay [9], 11 µM; in assay [10], 6.96 µM.
Regarding `CC(C)(C)NCC(O)c1ccccc1Cl` (stereo not given), the GI50 in [1], in assay [2], in [3], in [4], in assay [5] and in assay [6] was more than 100 µM in each case. Further, the GI50 in assay [7], in [8], in assay [9] and in [10] was more than 100 µM each time. Also, the TGI in [1], in assay [2], in [3], in [4], in assay [5] and in assay [6] was more than 100 µM each time. The TGI in assay [7], in assay [8], in assay [9] and in assay [10] was more than 100 µM throughout.
Take `CC(C)[C@@H](C(=O)O[C@@H]1/C=C/C(=O)O[C@@H](C)CCC/C=C/[C@@H]2C[C@H](O)C[C@H]21)N(C)C`: the GI50 in assay [1] is 8.95 µM; in [2], 18.1 µM; in [3], 9.21 µM; in [4], 35.9 µM; in assay [5] it was 15.2 µM; in assay [6], 28.4 µM. In addition, the GI50 was 22.5 µM in assay [7], 23.1 µM in [8], 30 µM in assay [9] and 13.8 µM in assay [10]. Further, the TGI in assay [1] is 25.5 µM; in assay [2], more than 83.2 µM; in assay [3], 36.4 µM; in assay [4], more than 100 µM; in assay [5] it was 63.2 µM; in [6] it was more than 62.1 µM. Also, the TGI in assay [7] was 67.4 µM; in assay [8], more than 100 µM; in assay [9], more than 100 µM; in assay [10] it was 36 µM.
For the molecule `C[C@]12CCC(=O)C=C1C[C@@H](O)[C@@H]1[C@@H]2CC[C@@]2(C)[C@H]1CC[C@]2(C)O`, the TGI in assay [1], in [2], in [3], in assay [4], in assay [5] and in assay [6] was more than 100 µM each time. In addition, the TGI in [8], in assay [9] and in [10] was more than 100 µM in each case.
Turning to `CCC[CH2][Sn]1([CH2]CCC)[O]C(=O)c2cccc([N+](=O)[O-])c2C(=O)[O]1`, the GI50 in [1] was 0.617 µM; in assay [2], 1.04 µM; in [3], 0.331 µM; in assay [4], 1.11 µM; in [5], 0.682 µM; in assay [6], 0.784 µM. Further, the GI50 in [7] is 0.497 µM; in assay [8], 0.329 µM; in assay [9], 0.0604 µM; in assay [10], 0.206 µM. Further, the TGI is 1.93 µM in assay [1]; 2.24 µM in assay [2]; 1.34 µM in assay [3]; 2.49 µM in assay [4]; 2.07 µM in assay [5]; 2.15 µM in assay [6]. In addition, the TGI in assay [7] was determined as 1.73 µM; in [8], 1.41 µM; in assay [9] it was 0.27 µM; in [10], 1.35 µM.
On to `CCC(=O)OCOc1ccc(/C=C2\CCC(CN(C)C)C2=O)cc1` (stereo not given), for which the TGI in assay [1] turned out to be 15.8 µM; in assay [2] it was 11.2 µM; in assay [3], 31.8 µM; in assay [4], 31.6 µM; in [5], 9.23 µM; in assay [6], 7.56 µM. Further, the TGI in [7] is 17.3 µM; in [8], 19 µM; in assay [9] it was 9 µM; in assay [10], 5.51 µM.
As to `CC(=O)C1=C(C)N(Cc2ccccc2)C2(O)C=CC(=O)C3=C(O)c4ccccc4C(=O)C312` (stereo not given), the GI50 was 2.38 µM in [1]; 6.25 µM in assay [2]; 8.12 µM in assay [3]; 6.28 µM in assay [4]; 3.18 µM in [5]; 1.82 µM in [6]. Further, the GI50 in assay [7] was 2.91 µM; in assay [9], 2.71 µM; in [10], more than 100 µM. The TGI amounted to 5.04 µM in [1]; 30 µM in assay [2]; 22.1 µM in assay [3]; 25 µM in assay [4]; 9.03 µM in assay [5]; 3.6 µM in assay [6]. The TGI in assay [7] is 7.09 µM; in assay [9], 7.97 µM; in assay [10] it was more than 100 µM.
For the molecule `CCOC(=O)C1=C(Nc2ccc(OC)cc2)C(N)=NC1=N`, the GI50 in [1] was 3.07 µM; in [2] it was 4.63 µM; in assay [4] it was 5.09 µM; in [6], 5.14 µM; in assay [7], 2.15 µM; in assay [8], 6.29 µM. Moreover, the GI50 in assay [9] is more than 100 µM; in assay [10], 3.51 µM. For the same molecule, the TGI is 10.1 µM in assay [1]; more than 100 µM in assay [2]; more than 100 µM in [4]; more than 100 µM in [6]; 6.27 µM in assay [7]; more than 100 µM in assay [8]. Besides, the TGI in [9] and in [10] was more than 100 µM in each case.
Consider `CN(C(=O)C(C)(C)C)c1ccccc1I(=O)=O`, for which the GI50 in assay [1] was 60.7 µM; in assay [2], more than 100 µM; in assay [3], more than 100 µM; in [4], more than 100 µM; in assay [6], more than 100 µM; in assay [7], more than 100 µM. Moreover, the GI50 was more than 100 µM in assay [8], 38.3 µM in assay [9] and 3.81 µM in [10]. The TGI in [1], in [2], in [3], in assay [4], in [6] and in assay [7] was more than 100 µM throughout. The TGI in assay [8], in assay [9] and in [10] was more than 100 µM throughout.
As for `O=C(Nc1nc2c(C(F)(F)F)cccc2s1)c1cc(Cl)ccc1O`, the GI50 in assay [1] was 0.52 µM; in [2] it was 0.326 µM; in [3], 0.269 µM; in assay [4], 0.317 µM; in assay [5], 0.35 µM; in assay [6], 0.289 µM. The results for the GI50 in assay [7], in [8] and in assay [9] were 0.286 µM, 0.265 µM and 0.245 µM, respectively. For the same molecule, the TGI is 2.42 µM in assay [1]; 53.8 µM in [2]; 1.31 µM in assay [3]; 25.7 µM in assay [4]; 22.8 µM in assay [5]; 1.53 µM in [6]. The TGI in assay [7] was 1.96 µM; in assay [8], 11.7 µM; in [9] it was 0.783 µM.
For the molecule `CC(=O)C(CN1C(=O)c2ccccc2C1=O)C(C)=O`, the TGI in [1], in assay [2], in assay [3], in assay [4], in assay [5] and in assay [6] was more than 100 µM in each case. Further, the TGI in [7], in assay [8] and in assay [9] was more than 100 µM throughout.
For the molecule `CC12CCC(C1)C(C)(C)C2OC(=O)c1ccccc1N` (stereo not given), the TGI turned out to be 29 µM in [1]; 38.5 µM in assay [2]; 35 µM in assay [4]; 31.6 µM in assay [5]; 31.7 µM in assay [6]; 33.7 µM in assay [7]. Further, the TGI in [8] is 30.8 µM; in assay [9], 32.1 µM; in [10], 28.6 µM.
For `NC1CC(=O)c2c(-c3cccs3)sc(-c3cccs3)c21` (stereo not given), the GI50 in [1] was 21.5 µM; in assay [2], 30.2 µM; in [3], 21.6 µM; in [5], 37.3 µM; in assay [6] it was 24.3 µM; in [7] it was 21.3 µM. Further, the values for the GI50 in [8], in assay [9] and in assay [10] were 24.7 µM, 10.7 µM and 20.5 µM, respectively. For the same molecule, the TGI in [1] is 63.8 µM; in assay [2] it was more than 100 µM; in [3] it was 48.3 µM; in assay [5] it was more than 100 µM; in assay [6], 69.8 µM; in assay [7] it was 47.6 µM. For the same molecule, the TGI is more than 100 µM in [8], 36.5 µM in [9] and 61.1 µM in assay [10].
As to `Cc1ccc(NC(=O)COc2ccc(Cl)cc2)cc1Cl`, the TGI in [1], in assay [2], in [3], in assay [4], in assay [5] and in assay [6] was more than 100 µM in each case. The TGI in [7], in [8] and in [9] was more than 100 µM in each case.
Regarding `C=C1C(=O)O[C@@H]2/C=C(/C)[C@@H](OC(C)=O)C[C@@H](O)/C(C)=C\[C@@H](OC(=O)[C@]3(C)O[C@@H]3C)[C@@H]12`, the TGI in assay [1] is 19.4 µM; in assay [2] it was 27.4 µM; in [3], more than 100 µM; in assay [4], 32.6 µM; in [5], 25 µM; in assay [6], 24.7 µM. Also, the TGI in assay [7] is 46.5 µM; in assay [9], 24.1 µM; in assay [10], 7.85 µM.
As for `CCCCCCC(=O)NC1=C(N2CC2)C(=O)C(NC(=O)CCCCCC)=C(N2CC2)C1=O`, the GI50 in assay [3] was more than 100 µM; in [4], more than 100 µM; in [5], 2.25 µM; in assay [7], 2.37 µM; in [8] it was 6.15 µM; in [9] it was 3.45 µM. The GI50 in assay [10] was 3.17 µM. For the same molecule, the TGI in assay [3], in assay [4], in [5], in assay [7], in assay [8] and in assay [9] was more than 100 µM each time. Moreover, the TGI in assay [10] was more than 100 µM.
